Assay [1] concerns the target T1, SFRP-1 (Homo sapiens, UniProt Q8N474).
T1 sequence (Q8N474 32-314): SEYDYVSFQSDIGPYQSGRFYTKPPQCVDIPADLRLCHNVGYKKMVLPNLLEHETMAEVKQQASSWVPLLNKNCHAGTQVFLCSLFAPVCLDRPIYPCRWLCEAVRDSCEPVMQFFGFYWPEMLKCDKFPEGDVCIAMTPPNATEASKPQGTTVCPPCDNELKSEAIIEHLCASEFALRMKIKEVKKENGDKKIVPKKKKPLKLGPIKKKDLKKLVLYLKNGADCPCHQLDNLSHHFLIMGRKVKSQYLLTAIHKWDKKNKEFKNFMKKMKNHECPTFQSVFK
The experiment in a line: Cell-based assay for in vitro measurement of SFRP-1/SARP2 antagonist activity (U2OS cells co-transfected with 16x TCF-tk-Luciferase reporter, Wnt and hSFRP-1).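 For all read-outs here: U2OS cells co-transfected with a TCF-tk luciferase reporter, a Wnt vector, hSFRP-1 or empty vector and CMV-βgal, luciferase luminescence read in cell lysates alongside βgal activity.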 Conditions: for fold induction at 10 µM: U2OS, read-out: Fold Induction with SFRP-1, U2OS cells, single dose 10 μM, luciferase reporter, fold induction over SFRP-1 control.

The target of assay [2] is T1, SFRP-1. The experiment in a line: Fluorescence polarization binding assay (competitive displacement of a probe compound from SFRP-1).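 Note: test compound competes with a fluorescent probe held by SFRP-1, seen as a drop in probe anisotropy after incubation in darkness, with anisotropy as function of rising compound dose.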 As to conditions: fluorescence anisotropy, 45 nM SFRP-1, 20 nM probe.

SMILES strings stand for the structures. Structures can show the parent of a compound that is named as a salt.

Usually IC50 stands for the point on the concentration scale where inhibition reaches its midpoint. A higher IC50 goes with weaker potency in that assay. The EC50 is the midpoint of the concentration-response curve.

Consider `CC(C)(C)OC(=O)N1CCC[C@H](NS(=O)(=O)c2cc(S(=O)(=O)c3ccccc3)ccc2C(F)(F)F)C1` [Example 786, tert-butyl(3S)-3-({[5-(phenylsulfonyl)-2-(trifluoromethyl)phenyl]sulfonyl}amino)piperidine-1-carboxylate], for which the fold induction at 10 µM in assay [1] is 1.7. This compound displayed an IC50 in assay [2] of 4400 nM.

Consider `CC(C)(C)OC(=O)N1CCC[C@@H](NS(=O)(=O)c2cc(S(=O)(=O)c3ccccc3)ccc2C(F)(F)F)C1` [Example 787, tert-butyl(3R)-3-({[5-(phenylsulfonyl)-2-(trifluoromethyl)phenyl]sulfonyl}amino)piperidine-1-carboxylate], for which, in assay [1], the response was half-maximal at 896 nM (EC50) and the fold induction at 10 µM is 3.7. For the same compound, the IC50 in assay [2] worked out at 300 nM.

With `O=S(=O)(N[C@H]1CCCNC1)c1cc(S(=O)(=O)c2ccccc2)ccc1C(F)(F)F` [Example 790, 5-(phenylsulfonyl)-N-[(3S)-piperidin-3-yl]-2-(trifluoromethyl)benzenesulfonamide], in assay [1], the fold induction at 10 µM is 3.1. The same compound displayed an IC50 in assay [2] of 2000 nM.

Turning to `O=S(=O)(N[C@@H]1CCCNC1)c1cc(S(=O)(=O)c2ccccc2)ccc1C(F)(F)F` [Example 791, 5-(phenylsulfonyl)-N-[(3R)-piperidin-3-yl]-2-(trifluoromethyl)benzenesulfonamide], the fold induction at 10 µM in assay [1] was 3.8. This compound came in with an IC50 in assay [2] of 3000 nM.

As to `Cc1cc2cc(S(=O)(=O)c3ccc(C(F)(F)F)c(S(=O)(=O)NC4CCNCC4)c3)ccc2n1C` [Example 792, 5-[(1,2-dimethyl-1H-indol-5-yl)sulfonyl]-N-piperidin-4-yl-2-(trifluoromethyl)benzenesulfonamide], in assay [1], the response was half-maximal at 2290 nM (EC50) and the fold induction at 10 µM worked out at 1.4. The compound also returned an IC50 in assay [2] of 200 nM.

For `CN(CCNS(=O)(=O)c1cc(S(=O)(=O)c2ccccc2)ccc1C(F)(F)F)C(=O)OC(C)(C)C` [Example 793, tert-Butyl methyl[2-({[5-(phenylsulfonyl)-2-(trifluoromethyl)phenyl]sulfonyl}amino)ethyl]carbamate], in assay [1], the EC50 is 1540 nM and the fold induction at 10 µM is 2.5. Also, the IC50 in assay [2] came out at 600 nM.

Take `CC(C)(C)OC(=O)N1CC[C@H](NS(=O)(=O)c2cc(S(=O)(=O)c3ccccc3)ccc2C(F)(F)F)C1` [Example 794, tert-butyl(3S)-3-({[5-(phenylsulfonyl)-2-(trifluoromethyl)phenyl]sulfonyl}amino)pyrrolidine-1-carboxylate]: in assay [1], the EC50 came to 534 nM and the fold induction at 10 µM was determined as 3.3. In assay [2], this compound gave an IC50 of 100 nM.

In the case of `CC(C)(C)OC(=O)N1CC[C@@H](NS(=O)(=O)c2cc(S(=O)(=O)c3ccccc3)ccc2C(F)(F)F)C1` [Example 795, tert-butyl(3R)-3-({[5-(phenylsulfonyl)-2-(trifluoromethyl)phenyl]sulfonyl}amino)pyrrolidine-1-carboxylate], in assay [1], the midpoint of the response, the EC50, lay at 140 nM and the fold induction at 10 µM was determined as 3.8. This compound also displayed an IC50 in assay [2] of 80 nM.

Regarding `O=S(=O)(N[C@H]1CCNC1)c1cc(S(=O)(=O)c2ccccc2)ccc1C(F)(F)F` [Example 796, 5-(phenylsulfonyl)-N-[(3S)-pyrrolidin-3-yl]-2-(trifluoromethyl)benzenesulfonamide], in assay [1], the 50% effective concentration (EC50) was 1350 nM and the fold induction at 10 µM was 4.3. For the same compound, the half-maximal inhibitory concentration (IC50) in assay [2] is 600 nM.

Turning to `O=S(=O)(N[C@@H]1CCNC1)c1cc(S(=O)(=O)c2ccccc2)ccc1C(F)(F)F` [Example 797, 5-(phenylsulfonyl)-N-[(3R)-pyrrolidin-3-yl]-2-(trifluoromethyl)benzenesulfonamide], the fold induction at 10 µM in assay [1] was determined as 3.5. The compound also registered a half-maximal inhibitory concentration (IC50) in assay [2] of 800 nM.

For the compound `Cc1ccc(S(=O)(=O)c2ccccc2)cc1S(=O)(=O)NC1CCSCC1` [Example 798, 2-methyl-5-(phenylsulfonyl)-N-(tetrahydro-2H-thiopyran-4-yl)benzenesulfonamide], the fold induction at 10 µM in assay [1] is 1.8. In assay [2], the IC50 is 4000 nM.

As to `CNCCNS(=O)(=O)c1cc(S(=O)(=O)c2ccccc2)ccc1C(F)(F)F` [Example 799, N-[2-(Methylamino)ethyl]-5-(phenylsulfonyl)-2-(trifluoromethyl)benzenesulfonamide hydrochloride], the fold induction at 10 µM in assay [1] amounted to 2.2. Besides, in assay [2], the IC50 was determined as 8000 nM.

On to `O=C(c1ccccc1)c1ccc(C(=O)N2CCC(NS(=O)(=O)c3cc(S(=O)(=O)c4ccccc4)ccc3C(F)(F)F)CC2)cc1` [Example 800, N-[1-(4-benzoylbenzoyl)piperidin-4-yl]-5-(phenylsulfonyl)-2-(trifluoromethyl)benzenesulfonamide], for which, in assay [1], a half-maximal effect (EC50) was put at 738 nM and the fold induction at 10 µM amounted to 3.6. The compound also showed an IC50 in assay [2] of 400 nM.

Take `O=C(c1ccccc1)c1cccc(C(=O)N2CCC(NS(=O)(=O)c3cc(S(=O)(=O)c4ccccc4)ccc3C(F)(F)F)CC2)c1` [Example 801, N-[1-(3-benzoylbenzoyl)piperidin-4-yl]-5-(phenylsulfonyl)-2-(trifluoromethyl)benzenesulfonamide]: in assay [1], the 50% effective concentration (EC50) came to 1080 nM and the fold induction at 10 µM was determined as 3.4. Further, the half-maximal inhibitory concentration (IC50) in assay [2] was found to be 180 nM.

In the case of `O=S(=O)(NCCc1cccnc1)c1cc(S(=O)(=O)c2ccc(O)cc2)ccc1C(F)(F)F` [Example 814, 5-[(4-hydroxyphenyl)sulfonyl]-N-(2-pyridin-3-ylethyl)-2-(trifluoromethyl)benzenesulfonamide], in assay [1], the EC50 was determined as 307 nM and the fold induction at 10 µM stood at 4.5. In assay [2], this compound showed an IC50 of 120 nM.

For the compound `CC(C)c1ccc(S(=O)(=O)c2ccc(F)cc2)cc1S(=O)(=O)NC1CCSCC1` [Example 815, 5-[(4-fluorophenyl)sulfonyl]-2-isopropyl-N-(tetrahydro-2H-thiopyran-4-yl)benzenesulfonamide], the fold induction at 10 µM in assay [1] came to 2.2. In assay [2], this compound returned an IC50 of 1800 nM.

Regarding `O=S(=O)(NCCn1ccnc1)c1cc(S(=O)(=O)c2ccc(F)cc2)ccc1C(F)(F)F` [Example 816, 5-[(4-fluorophenyl)sulfonyl]-N-[2-(1H-imidazol-1-yl)ethyl]-2-(trifluoromethyl)benzenesulfonamide], in assay [1], the response was half-maximal at 1510 nM (EC50) and the fold induction at 10 µM worked out at 3.8. The compound further registered a half-maximal inhibitory concentration (IC50) in assay [2] of 270 nM.

For `O=S(=O)(NC1CCOCC1)c1cc(S(=O)(=O)c2ccc(F)cc2)ccc1C(F)(F)F` [Example 817, 5-[(4-fluorophenyl)sulfonyl]-N-(tetrahydro-2H-pyran-4-yl)-2-(trifluoromethyl)benzenesulfonamide], in assay [1], the 50% effective concentration (EC50) was 1140 nM and the fold induction at 10 µM came out at 3.3. In assay [2], this compound came in with an IC50 of 300 nM.

For `CC(C)(C)OC(=O)N1CCC(NS(=O)(=O)c2cc(S(=O)(=O)c3ccc(F)cc3)ccc2C(F)(F)F)CC1` [Example 818, tert-butyl 4-({[5-[(4-fluorophenyl)sulfonyl]-2-(trifluoromethyl)phenyl]sulfonyl}amino)piperidine-1-carboxylate], in assay [1], it took 1320 nM to reach a half-maximal effect (EC50) and the fold induction at 10 µM was found to be 2.6. Moreover, the IC50 in assay [2] turned out to be 300 nM.

In the case of `CN(CCNS(=O)(=O)c1cc(S(=O)(=O)c2ccccc2)ccc1C(F)(F)F)C(=O)c1ccccc1` [Example 819, N-Methyl-N-[2-({[5-(phenylsulfonyl)-2-(trifluoromethyl)phenyl]sulfonyl}amino)ethyl]benzamide], in assay [1], the response was half-maximal at 1570 nM (EC50) and the fold induction at 10 µM was 3.3. In assay [2], this compound showed an IC50 of 220 nM.

As to `COc1ccc(S(=O)(=O)c2ccc(C(F)(F)F)c(S(=O)(=O)NCCC#N)c2)cc1` [Example 820, N-(2-cyanoethyl)-5-[(4-methoxyphenyl)sulfonyl]-2-(trifluoromethyl)benzenesulfonamide], in assay [1], the concentration giving a half-maximal response (EC50) worked out at 797 nM and the fold induction at 10 µM is 4.1. In assay [2], this compound displayed an IC50 of 250 nM.

As to `N#CCCNS(=O)(=O)c1cc(S(=O)(=O)c2ccc(O)cc2)ccc1C(F)(F)F` [Example 821, N-(2-cyanoethyl)-5-[(4-hydroxyphenyl)sulfonyl]-2-(trifluoromethyl)benzenesulfonamide], in assay [1], the 50% effective concentration (EC50) was found to be 626 nM and the fold induction at 10 µM was 5.1. Besides, the concentration for half-maximal inhibition (IC50) in assay [2] came to 300 nM.

Turning to `COc1ccc(C(=O)N(C)CCNS(=O)(=O)c2cc(S(=O)(=O)c3ccccc3)ccc2C(F)(F)F)cc1` [Example 822, 4-Methoxy-N-methyl-N-[2-({[5-(phenylsulfonyl)-2-(trifluoromethyl)phenyl]sulfonyl}amino)ethyl]benzamide], in assay [1], the midpoint of the response, the EC50, lay at 1840 nM and the fold induction at 10 µM was 3.4. The compound also came in with an IC50 in assay [2] of 200 nM.

As for `O=S(=O)(NC1c2ccccc2CC1O)c1cc(S(=O)(=O)c2ccccc2)ccc1C(F)(F)F` (centres unmarked) [Example 823, N-(2-hydroxy-2,3-dihydro-1H-inden-1-yl)-5-(phenylsulfonyl)-2-(trifluoromethyl)benzenesulfonamide], in assay [1], the response was half-maximal at 3000 nM (EC50) and the fold induction at 10 µM worked out at 2.6. Moreover, the IC50 in assay [2] was determined as 800 nM.

On to `CN(CCNS(=O)(=O)c1cc(S(=O)(=O)c2ccccc2)ccc1C(F)(F)F)C(=O)Nc1ccccc1` [Example 826, N-{2-[(anilinocarbonyl)(methyl)amino]ethyl}-5-(phenylsulfonyl)-2-(trifluoromethyl)benzenesulfonamide], for which, in assay [1], the midpoint of the response, the EC50, lay at 1920 nM and the fold induction at 10 µM is 3.5. The same compound gave an IC50 in assay [2] of 700 nM.
